Tests used:
[1] = test system: eIF4A-dependent translation; assay: in vitro translation assay, bicistronic FF/HCV/Ren reporter mRNA in Krebs-2 extracts; type: biochemical; details: screen at 2 μM compound
Procedure: Structure-Activity Relationships. With a number of amidino-rocaglates and amino-rocaglates in hand, we evaluated their inhibition of eIF4A-dependent translation using an in vitro assay as depicted in FIG. 14, where a bicistronic reporter mRNA was designed for translation in Krebs-2 extracts. In FIG. 14 the following description applies (a) IC50 was determined from fitted sigmoid curves; […] indicates the concentration of compound that inhibits cap-dependent translation by 50%, which was normalized by cap-independent translation. For its determination, the bicistronic reporter FF/HCV/Ren mRNA was used to produce Firefly luciferase (cap-dependent) and Renilla luciferase (cap-independent) in Krebs-2 extracts in the presence of indicated compounds at various concentrations. In particular, translation of Firefly luciferase (FF) is cap-dependent and depends on eIF4A activity; in contrast, translation of Renilla luciferase (REN) utilizes the HCV internal ribosome entry site (IRES) which functions independently of eIF4A. IC50's were determined by the inhibition of FF relative to REN obtained in the presence of compound relative to vehicle controls and normalized to REN as an internal control. […] In accordance with the eIF4A-RNA-rocaglamide (2) co-crystallographic analysis (FIG. 4), the amide carbonyl of 2 interacts with Gln195 of eIF4A as a H-bond acceptor, while the tertiary hydroxyl of 2 serves as a H-bond donor to an RNA base. […] To further verify the hypothesis, amidino-rocaglates (pKa of N—H˜26.7-30.7 in DMSO, strong H-bond donors) and amino-rocaglates (pKa of N—H˜36 to 44 in DMSO, weak H-bond donors) were next evaluated. […] Conversely, benzyl amidine 9e had IC50=60 nM, whereas the methylene tether may allow conformational adjustment to avoid rigid repulsion in the binding pocket.
The rocaglate collection was also tested in in vitro translation assays using cell-free extracts with a previously described bicistronic mRNA containing the HCV IRES, which is not dependent on eIF4A activity and served as an internal control (FIG. 19C).
In Vitro Translation Assays. In vitro translation assays performed in Krebs-2 cell extracts were supplemented with 5 mM MgCl2, 30 mM Tris-HCl (pH 7.5), 1.5 mM ATP, 0.1 mM GTP, 0.6 mM CTP, 10 mM dipotassium creatine phosphate, 80 μg/mL creatine kinase, and 0.04 mM amino acids. The specified mRNA reporters were added to each reaction at a final concentration of 10 ng/μL. The translation reactions were incubated with or without compound for 60 minutes at 30° C. prior to the measurement of luciferase activities.
FIGS. 19A-19C. Rocaglate activity profiling. 19A. Assessing eIF4A1:poly r(AG)8 (SEQ ID NO: 2) RNA binding by FP in the presence of 10 μM rocaglate. Values are expressed relative to vehicle controls and data is rank ordered. n=3±SD. 19B. The change in polarization obtained with eIF4A1:poly r(AG)8 (SEQ ID NO: 2) and eIF4A2:poly r(AG)8 (SEQ ID NO: 2) RNA. Pearson r=0.814; p<0.0001. 19C. Inhibition of cap-dependent translation by rocaglates was measured using the indicated mRNA bicistronic reporter (4 ng/ul) in Krebs-2 extracts at a final compound concentration of 2 μM. n=3±SD.
FIG. 35A-35E are plots showing dose-response curve of FF-HCV-Ren mRNA translation in Krebs extracts with IC50s shown for inhibition of cap-dependent protein synthesis. Values are plotted relative to DMSO controls. n=2 technical replicates performed in duplicate.

NIH/3T3 cells = assay: Sulforhodamine B (SRB) cytotoxicity assay; type: cell-based; details: 40 nM, 4 days
Procedure: In cellula activity of rocaglates. All compounds in the rocaglate collection were assessed for cytotoxic activity towards NIH/3T3 cells as well as the rocaglate-resistant line, eIF4A^em1JP, which harbors an F163L mutation in eIF4A1. This mutation was originally identified following selection for RocA-resistant yeast mutants and F163 was subsequently shown to be critical for stacking with ring C of RocA (2) (FIG. 4). Although eIF4A2 is also a target of rocaglates, eIF4A1 F163L is sufficient to confer resistance to rocaglate-induced translation inhibition and cytotoxicity, likely due to eIF4A1 being the more abundant isoform in NIH/3T3 cells (250-fold higher). […] Lastly, although effective at inhibiting cap-dependent translation in vitro, WGD-57-591 (no activity @ 40 nM) and WGD-57-590 (12% growth inhibition @ 40 nM) performed poorly in this assay.
Sulforhodamine B (SRB) assay. NIH/3T3 cells were seeded at a density of 1000 cells/well in a 96 well format and incubated in presence of each 40 nM compound. After 4 days of culture, cells were washed with PBS, fixed with 50% trichloroacetic (TCA) acid for 1 hour, and then stained with 0.5% sulforhodamine B in 1% acetic acid for 15 min. Plates were then washed 5 times with 1% acetic acid, dried, and the stained wells were resuspended with 10 mM Tris (pH 9) prior to measuring the absorbance at 510 nm using (Spectramax M5, Molecular Devices)
FIGS. 26A-26B. In cellula activity of rocaglates. 26A. Cytotoxicity of rocaglates towards NIH/3T3 (grey circle) and the NIH/3T3 rocaglate-resistant line, eIF4A^em1JP(redtriangle). Cells were exposed to 40 nM compound for 4 days and viability was measured using the SRB assay. n=3±SD. 26B. Rocaglates show different sequence preferences for inhibiting cap-dependent translation in cellula. HEK 293 cells were transfected with 0.5 μg of in vitro synthesized capped (AG)10-FF/HCV/Ren or (UC)10-FF/HCV/Ren mRNA and 1h later exposed to the indicated concentrations of compounds for an additional 6 h, at which time extracts were prepared and luciferase activity measured. n=3 SD.

[2] = test system: MDA-MB-231 breast cancer cells; assay: SRB cell viability assay; type: cell-based; details: MDA-MB-231, SRB assay; read-out: IC50, cytotoxicity
From the text: Translation Inhibition by Amidino-Rocaglates Induces Cytotoxicity. We next evaluated amidino-rocaglates in an SRB cell viability assay using MDA-MB-231 breast cancer cells for cellular readout of translation inhibition (FIG. 16). In particular, (−)-9b, (−)-9aa, and (+)-9aa were compared with rocaglate hydroxamate (−)-23. […] The inspiring high-potency of amidino-rocaglates underscores their utility as promising agents for anticancer treatment combined with the appropriate formulation and drug-delivery strategies. […] Meanwhile, amide carbonyls of 9z and 9aa served as H-bond acceptors likely improving interactions with Gln195 of eIF4A, although this awaits structural confirmation. […] Our studies further illustrate the power of chemical synthesis enabling structural and biological improvement of complex natural products using targeted modifications. Additional biological studies of amidino-, amino-rocaglates, and related compounds including RNA binding studies are currently in progress and will be reported in due course.

Compound | inhibition of cap-dependent translation in vitro (in words) [1] | rank among the top 15 cytotoxic rocaglates (NIH/3T3 cells) | IC50 [2]
COC(=O)[C@@H]1[C@@H](c2ccccc2)[C@]2(c3ccc(OC)cc3)Oc3cc(OC)cc(OC)c3[C@@]23NC(C2CC2)=N[C@@]13O [9n] | comparable potency to SDS-1-021 | 15th | –
COC(=O)[C@@H]1[C@@H](c2ccccc2)[C@]2(c3ccc(OC)cc3)Oc3cc(OC)cc(OC)c3[C@@]23N=C(C)N[C@@]13O [(−)-9b] | – | – | 3.5 nM
